# According to patent publication US20160331708A1 (priority 2014, published 2016):
# Counter-ions that a name gives are not always drawn.
# Experiments:
# Bacillus subtilis 168 = assay: Antibiotic MIC tests in microtiter plates; details: for effect on MIC value when combined with anthranilic acid: anthranilic acid at around 2 mM, B. subtilis; for MIC with anthranilic acid (2.2 mM): antibiotic against B. subtilis in the presence of anthranilic acid (2.2 mM); for Effect: effect of anthranilic acid (2.2 mM) on MIC of the antibiotic against B. subtilis
# Streptomyces MBT3 = assay: TLC biogram / agar overlay antimicrobial assay of EtOAc extracts of Streptomyces MBT3 cultures treated with plant hormones; assay type: cell-based, Streptomyces sp MBT3 (indicator strain B. subtilis); details: methyl-jasmonate 100 μM or salicylic acid 250 μM added to 7 day cultures, 24 hours; B. subtilis indicator
# Method: All media for growth of Streptomyces are described in (Kieser et al., 2000). For the preparation of Streptomyces cultures, spores were obtained from SFM agar plates and inoculated at a density of 5×10^6 into 20 ml liquid minimal media with mannitol and glycerol as the carbon sources culture media in a 250 ml Erlenmeyer flask and incubated at 30° C. in a rotary shaker (250 rpm). Mycelia were precipitated by centrifugation for 10 minutes at 12,000 g. Each replicate of culture supernatant was extracted twice with an equal amount (40 ml in total) of analytically pure EtOAc (Sigma-Aldrich St. Louis, Mo., USA). Two grams of Na2SO4 was then added into the organic phase to remove remaining water and was evaporated under vacuum at 38° C. Samples were then re-dissolved in Methanol-d4 (99.8%) (Cambridge Isotope Laboratories, Inc., Andover, Mass., USA) for NMR analysis. 1.5 ml of the culture was collected every three hours and centrifuged. […]
# Actinomycetes are very abundantly present in the plant rhizosphere. […] The ethyl acetate extract of the culture fluid of MBT3 was analyzed further for metabolic profile and antimicrobial activity against Bacillus subtilis.
# Antimicrobial activity of the extracts was analyzed using thin layer chromatography (TLC) biograms. […]
# [1] = Bacillus subtilis, 168, antibiotic alone against B. subtilis (Table 2)
# [2] = antibiotic alone against B. subtilis (Table 3)
# [3] = Bacillus subtilis, 168, antibiotic alone against B. subtilis (Table 3)
# [4] = Bacillus subtilis, 168, compound alone (Table 4)
# [5] = antibiotic alone against B. subtilis (Table 2)
molecule,measurement,setting,value
CCn1cc(C(=O)O)c(=O)c2ccc(C)nc21 [Nalidixic acid],MIC,Bacillus subtilis 168; [1],3.1 µg/mL
"CC1(C)S[C@@H]2[C@H](NC(=O)[C@H](N)c3ccccc3)C(=O)N2[C@H]1C(=O)O [Ampicillin (sodium salt), Ampicillin]",MIC,Bacillus subtilis 168; [1],0.0153 µg/mL
"CN[C@H](CC(C)C)C(=O)N[C@H]1C(=O)N[C@@H](CC(N)=O)C(=O)N[C@H]2C(=O)N[C@H]3C(=O)N[C@H](C(=O)N[C@H](C(=O)O)c4cc(O)cc(O)c4-c4cc3ccc4O)[C@H](O)c3ccc(c(Cl)c3)Oc3cc2cc(c3O[C@@H]2O[C@H](CO)[C@@H](O)[C@H](O)[C@H]2O[C@H]2C[C@](C)(N)[C@H](O)[C@H](C)O2)Oc2ccc(cc2Cl)[C@H]1O [Vancomycin (HCl), Vancomycin]",MIC,"Bacillus subtilis 168; Bacillus subtilis, 168",0.156 µg/mL
same,effect on MIC value when combined with anthranilic acid,Bacillus subtilis 168,No synergistic effect
same,MIC with anthranilic acid (2.2 mM),Bacillus subtilis 168,0.156 µg/mL
same,MIC,Bacillus subtilis 168; [2],0.156 µg/mL
same,Effect,Bacillus subtilis 168,No effect
"CC1=C(C(=O)O)N2C(=O)[C@@H](NC(=O)[C@H](N)c3ccccc3)[C@H]2SC1 [Cephalexin (1H2O), Cephalexin]",MIC,Bacillus subtilis 168; [1],0.122 µg/mL
same,MIC,Bacillus subtilis 168; [3],0.122 µg/mL
same,Effect,Bacillus subtilis 168,Lower MIC
Benzoic acid,MIC,Bacillus subtilis 168; compound alone (Table 4),>750 µg/mL
"O=C(O)[C@@H]1CCCN1 (racemic) [D,L-Proline]",MIC,Bacillus subtilis 168; compound alone (Table 4),>750 µg/mL
CO[C@H]1/C=C/O[C@@]2(C)Oc3c(C)c(O)c4c(O)c(c(/C=N/N5CCN(C)CC5)c(O)c4c3C2=O)NC(=O)/C(C)=C\C=C\[C@H](C)[C@H](O)[C@@H](C)[C@@H](O)[C@@H](C)[C@H](OC(C)=O)[C@@H]1C [Rifampin],MIC,Bacillus subtilis 168; [1],0.0122 µg/mL
same,MIC,Bacillus subtilis 168; [3],0.0122 µg/mL
same,MIC with anthranilic acid (2.2 mM),Bacillus subtilis 168,0.0122 µg/mL
same,Effect,Bacillus subtilis 168,No effect
"Nc1cc(N)cc(C(=O)O)c1 [3,5-diaminobenzoic acid]",MIC,Bacillus subtilis 168; [4],> 750 µg/mL
Actinomycin C2,MIC,Bacillus subtilis 168; [5],0.25 µg/mL
Neomycin [Neomycin (sulfate)],effect on MIC value when combined with anthranilic acid,Bacillus subtilis 168,decreased
same,MIC with anthranilic acid (2.2 mM),Bacillus subtilis 168,15.6 µg/mL
same,MIC,Bacillus subtilis 168; [5],62.5 µg/mL
same,MIC,Bacillus subtilis 168; [2],62.5 µg/mL
same,Effect,Bacillus subtilis 168,Lower MIC
"CCC[C@@H]1C[C@@H](C(=O)N[C@@H]([C@H]2O[C@H](SC)[C@H](O)[C@@H](O)[C@H]2O)[C@H](C)Cl)N(C)C1 [Clindamycin (HCl), Clindamycin]",MIC,Bacillus subtilis 168; [1],0.488 µg/mL
same,MIC,Bacillus subtilis 168; [3],0.488 µg/mL
same,MIC with anthranilic acid (2.2 mM),Bacillus subtilis 168,0.244 µg/mL
"O=C(O)c1ccccc1O [Salicylic acid (sodium salt), Salicylic acid]",effect on antimicrobial activity (bioactivity) of MBT3,Streptomyces MBT3,no effect
same,MIC,Bacillus subtilis 168; [4],> 1500 µg/mL
Gentamycin [Gentamycin (sulfate)],effect on MIC value when combined with anthranilic acid,Bacillus subtilis 168,decreased
same,MIC with anthranilic acid (2.2 mM),Bacillus subtilis 168,0.625 µg/mL
same,MIC,Bacillus subtilis 168; [5],1.25 µg/mL
same,MIC,Bacillus subtilis 168; [2],1.25 µg/mL
same,Effect,Bacillus subtilis 168,Lower MIC
Actinomycin C,effect on MIC value when combined with anthranilic acid,Bacillus subtilis 168,decreased
same,MIC with anthranilic acid (2.2 mM),Bacillus subtilis 168,0.039 µg/mL
same,MIC,Bacillus subtilis 168; [5],0.078 µg/mL
same,MIC,Bacillus subtilis 168; [2],0.078 µg/mL
same,Effect,Bacillus subtilis 168,Lower MIC
Nc1ccc(C(=O)O)cc1 [4-aminobenzoic acid],MIC,Bacillus subtilis 168; [4],750 µg/mL
